Results published in ChEMBL document CHEMBL1201862, “PubChem BioAssay data set” (2004).
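Method: 48-hour compound exposure of cells in 96-well plates, five concentrations, linear interpolation of endpoints. GI50 is the concentration that inhibits growth by half.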 Active and inactive are the calls of the source. Rule as the data show it: active = GI50 up to about 1.1 µM and inactive = higher.

Experiments:
Test in all cases: NCI anticancer screen, dose series, 48 h
[1] = test system: LXFL 529
[2] = test system: KM-20L2
[3] = test system: DMS-273
[4] = test system: HOP-18
[5] = test system: RXF 631
[6] = test system: M19-MEL
[7] = test system: XF498
[8] = test system: SNB-78
[9] = test system: DLD-1

Measured: GI50

NS(=O)(=O)c1ccc(NC(=O)c2cccc3cc4ccccc4nc23)cc1
inactive: [1] 25 µM | [2] 12.6 µM | [3] 9.44 µM | [4] > 100 µM | [5] 29.2 µM | [6] 37.2 µM | [7] 49.7 µM | [8] > 100 µM | [9] 17.1 µM

Cc1oc2c(C)c3oc(=O)cc(C)c3cc2c1CN1C(=O)C2OCCOCCOCCOCCOCCO[C@H]2C1=O (stereo partly specified)
inactive: [1] > 100 µM | [2] > 100 µM | [3] > 100 µM | [4] > 100 µM | [5] 26.7 µM | [6] > 100 µM | [8] > 100 µM | [9] > 100 µM

Cn1c(=O)c2nc3c4ccccc4c(=O)n(C)c3nc2n(C)c1=O
inactive: [1] > 100 µM | [2] > 100 µM | [6] > 100 µM | [8] > 100 µM

NNC(=O)N/N=C1/C(=O)N(c2ccc(Cl)c(Cl)c2)C(=O)C(=O)C1c1nc2ccccc2o1 (stereo unspecified)
inactive: [1] > 100 µM | [2] > 100 µM | [3] > 100 µM | [4] > 100 µM | [5] 76.4 µM | [6] > 100 µM | [8] > 100 µM | [9] > 100 µM

Cn1cc(NC(=O)c2cc(NC(=O)CCCCCCCC(=O)Nc3cc(C(=O)Nc4cc(C(=O)NCCC(=N)N)n(C)c4)n(C)c3)cn2C)cc1C(=O)NCCC(=N)N
inactive: [1] 12.4 µM | [2] > 100 µM | [3] 11.2 µM | [4] 34 µM | [5] 56.9 µM | [6] 5.43 µM | [7] 29.2 µM | [8] 35.2 µM | [9] 30.9 µM

O=S(=O)(c1ccccc1)c1nccs1
inactive: [1] > 100 µM | [2] > 100 µM | [3] > 100 µM | [4] > 100 µM | [6] > 100 µM | [7] > 100 µM | [8] > 100 µM | [9] > 100 µM

CCCCCCCCCCCCCCNCC(OC)OC
inactive: [1] 16.3 µM | [2] 14.4 µM | [3] 17.5 µM | [4] 13.3 µM | [5] 15.2 µM | [6] 18.1 µM | [7] 16.7 µM | [8] 17.4 µM | [9] 14.6 µM

CCCc1nc(NC#N)nc(C(=O)NC23CC4CC(CC(C4)C2)C3)c1C
inactive: [1] > 100 µM | [2] > 100 µM | [3] > 100 µM | [4] > 100 µM | [6] > 100 µM | [8] > 100 µM | [9] > 100 µM

C=C(C)C(=O)OC1C/C(CO)=C\C(O)C/C(C)=C/C2OC(=O)C(=C)C21 (stereo unspecified)
inactive: [1] 16.9 µM | [2] 30.3 µM | [3] 27.5 µM | [4] 31.3 µM | [5] 18.4 µM | [6] 25.6 µM | [7] 15.2 µM | [8] 46.3 µM

O=c1cccccc1NCCOCCNc1cccccc1=O
inactive: [1] > 100 µM | [2] > 100 µM | [3] > 100 µM | [4] 29 µM | [6] > 100 µM | [8] > 100 µM | [9] > 100 µM

COC(=O)c1sc(C(=O)OC)c2c1C[S+]([O-])C2
inactive: [1] > 100 µM | [2] > 100 µM | [3] > 100 µM | [4] > 100 µM | [5] > 100 µM | [6] > 100 µM | [7] 38.7 µM | [8] > 100 µM | [9] > 100 µM

CC1=C2C(O)C(C(C)C(=O)NCC(C)C)CCC2(C)C=CC1=O (stereo unspecified)
inactive: [2] > 100 µM | [3] > 100 µM | [4] > 100 µM | [6] > 100 µM | [7] > 100 µM | [8] > 100 µM | [9] > 100 µM

CN(C)c1ccc(O[Si](Oc2ccc(N(C)C)cc2)(Oc2ccc(N(C)C)cc2)Oc2ccc(N(C)C)cc2)cc1
inactive: [1] 50.9 µM | [2] > 100 µM | [4] > 100 µM | [6] > 100 µM | [7] 44.4 µM | [9] > 100 µM

CCCCCCCC(=O)OC(COC(=O)Cc1ccccc1)COC(=O)C(C)(C)C (stereo unspecified)
inactive: [1] 95.3 µM | [2] > 100 µM | [3] > 100 µM | [4] > 100 µM | [5] > 100 µM | [6] > 100 µM | [9] > 100 µM

O=C(/N=C(/Nc1ccccc1)SCS/C(=N\C(=O)c1ccco1)Nc1ccccc1)c1ccco1
inactive: [1] > 100 µM | [2] > 100 µM | [3] 37.8 µM | [5] 94.4 µM | [6] > 100 µM | [7] 25.4 µM | [8] 37.1 µM | [9] 44 µM

Cc1ccc2nc(/C(=C/c3ccc(/C=C(\NC(=O)c4ccccc4)c4nc5ccc(C)cc5[nH]4)c(C)c3)NC(=O)c3ccccc3)[nH]c2c1
inactive: [1] 1.5 µM | [2] 20.3 µM | [3] 22.6 µM | [5] 19.2 µM | [6] 4.36 µM | [7] 3.76 µM | [8] 23.1 µM | [9] 3.02 µM

CCN(CC)c1ccc(/N=N\c2ccc(-c3nc4ccc[n+](C)c4s3)cc2)cc1
inactive: [1] 3.24 µM | [2] 6.78 µM | [3] 3.65 µM | [4] 16.7 µM | [6] 3.55 µM | [8] 4.37 µM

C#CCC[C@@H]1O[C@@]1(C)CC/C=C(\C)CC/C=C/C=O
inactive: [1] 20.1 µM | [2] 36.4 µM | [3] 20 µM | [6] 24.2 µM | [7] 24.2 µM | [8] 25.3 µM

CN(C)CCC1(C2=CCCC2)CC/C(=C\c2ccc3c(c2)OCO3)C1=O (stereo unspecified)
inactive: [1] 12.9 µM | [2] 14.2 µM | [4] 13.6 µM | [5] 15.2 µM | [6] 18.6 µM | [8] 16.8 µM | [9] 17.1 µM
